The text below walks through data of article PMC10303200 (ACS Central Science, 2023).

Values joined by “and” are separate entries in the source; they are usually repeats but may differ in a detail not shown here. Identical values can stand only once. Like-named read-outs stand apart in the source and are kept apart here.

Assay [1] deals with T1, GAL-3C (Homo sapiens, UniProt P17931). The assay is described as follows: Literature reference values quoted in the results table, conditions not restated. It counts as binding. Further details: gene LGALS3; C-terminal carbohydrate recognition domain fragment, residues 107-250. The settings on record: SD; read-out: Kd (Literature), Table S2; cited from earlier work.
T1 sequence (P17931 107-250): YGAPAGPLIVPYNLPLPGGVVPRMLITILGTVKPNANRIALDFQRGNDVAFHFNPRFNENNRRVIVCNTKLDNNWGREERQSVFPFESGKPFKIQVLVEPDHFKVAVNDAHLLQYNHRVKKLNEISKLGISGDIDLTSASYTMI
Assay [2] concerns the target T1, GAL-3C. Put plainly: COIN-nMS, global fit over several glycan concentrations, 200 mM ammonium acetate, pH 6.9, 25 °C. Type of assay: binding. Set-up: gene LGALS3; C-terminal carbohydrate recognition domain fragment, residues 107-250. The settings on record: SD; read-out: Kd (COIN-nMS, global fit), Table S2.
The target in assay [3] is T1, GAL-3C. The assay is described as follows: Direct native ESI-MS at known concentrations with single glycans, 200 mM ammonium acetate, pH 6.9, 25 °C. Set-up: gene LGALS3; C-terminal carbohydrate recognition domain fragment, residues 107-250. It counts as binding. The settings on record: SD; read-out: Kd (nMS), Table S2.
In assay [4] the target is T1, GAL-3C. Put plainly: COIN-nMS (slow mixing in nanoESI emitter, fit of eq 12) at one glycan concentration, 200 mM ammonium acetate, pH 6.9, 25 °C. It counts as binding. Further details: gene LGALS3; C-terminal carbohydrate recognition domain fragment, residues 107-250. The settings on record: SD; read-out: Kd (COIN-nMS, individual experiments), Table S2.
For assay [5], the target named is T2, DC-SIGN CRD (Homo sapiens, UniProt Q9NNX6).
T2 sequence (Q9NNX6 250-404): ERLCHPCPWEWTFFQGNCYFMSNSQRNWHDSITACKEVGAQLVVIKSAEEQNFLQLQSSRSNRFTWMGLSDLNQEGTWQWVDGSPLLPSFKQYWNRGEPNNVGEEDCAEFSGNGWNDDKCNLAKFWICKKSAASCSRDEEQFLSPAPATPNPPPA
The assay is described as follows: Direct native ESI-MS (submicron emitters) with a mixture of ten glycans (G2, G5, G10, G14-G20), 200 mM ammonium acetate with 2.5 mM calcium salt, pH 7.4. Type of assay: binding. Further details: gene CD209; carbohydrate recognition domain, residues 250-404, MW 17 794 Da. The settings on record: SD, n = 6; read-out: Kd (nMS), Table S5.

For assay [6], the target named is T3, GAL-7 (Homo sapiens, UniProt P47929).
T3 construct: gene LGALS7; homodimer (monomer MW 14.94 kDa)
T3 sequence (P47929 whole entry): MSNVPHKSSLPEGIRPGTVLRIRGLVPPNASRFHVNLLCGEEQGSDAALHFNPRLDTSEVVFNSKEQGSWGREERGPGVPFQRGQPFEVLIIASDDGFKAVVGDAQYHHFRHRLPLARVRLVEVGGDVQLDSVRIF
The assay is described as follows: COIN-nMS of the GAL-7 homodimer with a mixture of ten glycans (G2, G5-G13), 200 mM ammonium acetate, pH 6.9. The settings on record: SD, n = 8; read-out: Kd (COIN-nMS), Table S4. Type of assay: binding.

In assay [7] the target is T1, GAL-3C. Put plainly: Direct native ESI-MS with a mixture of ten glycans (G2, G5-G13), 200 mM ammonium acetate, pH 6.9. It counts as binding. Further details: gene LGALS3; C-terminal carbohydrate recognition domain fragment, residues 107-250. The settings on record: SD, n = 8; read-out: Kd (nMS), Table S3.
Assay [8] has as its target T3, GAL-7. The assay is described as follows: Direct native ESI-MS of the GAL-7 homodimer with a mixture of ten glycans (G2, G5-G13), 200 mM ammonium acetate, pH 6.9. It counts as binding. To be noted: SD, n = 8; read-out: Kd (nMS), Table S4.
Assay [9] deals with T1, GAL-3C. The assay is described as follows: COIN-nMS with a mixture of ten glycans (G2, G5-G13), 200 mM ammonium acetate, pH 6.9. It counts as binding. Further details: gene LGALS3; C-terminal carbohydrate recognition domain fragment, residues 107-250. To be noted: SD, n = 8; read-out: Kd (COIN-nMS), Table S3.
Assay [10] has as its target T2, DC-SIGN CRD. The assay is described as follows: COIN-nMS (submicron emitters) with a mixture of ten glycans (G2, G5, G10, G14-G20), 200 mM ammonium acetate with 2.5 mM calcium salt, pH 7.4. Type of assay: binding. Set-up: gene CD209; carbohydrate recognition domain, residues 250-404, MW 17 794 Da. The settings on record: SD, n = 6; read-out: Kd (COIN-nMS), Table S5.

The target in assay [11] is T3, GAL-7. Put plainly: COIN-nMS, global fit over several glycan concentrations, 200 mM ammonium acetate, pH 6.9, 25 °C. It counts as binding. The settings on record: SD; read-out: Kd (COIN-nMS, global fit), Table S2.
Assay [12] has as its target T3, GAL-7. Put plainly: COIN-nMS (slow mixing in nanoESI emitter, fit of eq 12) at one glycan concentration, 200 mM ammonium acetate, pH 6.9, 25 °C. It counts as binding. To be noted: SD; read-out: Kd (COIN-nMS, individual experiments), Table S2.
Assay [13] has as its target T3, GAL-7. Put plainly: Direct native ESI-MS at known concentrations with single glycans, 200 mM ammonium acetate, pH 6.9, 25 °C. It counts as binding. To be noted: SD; read-out: Kd (nMS), Table S2.
The target of assay [14] is T4, MAA.
T4 construct: commercial lectin mixture
Put plainly: Isothermal titration calorimetry, 200 mM ammonium acetate, pH 6.8-6.9, 25 °C. It counts as binding. To be noted: SD; read-out: Kd (Literature), Table S6, determined by ITC. On the technique in general: ITC needs no label: the signal is the heat of the interaction.

The target in assay [15] is T4, MAA. The assay is described as follows: COIN-CaR-nMS (collisional release of bound glycan, fit of eq 13) with single purified glycans, 200 mM ammonium acetate, pH 6.9. Type of assay: binding. To be noted: SD; read-out: Kd (COIN-CaR-nMS), Table S6.
The target of assay [16] is Sig7-Fc (Homo sapiens, UniProt Q9Y286). The assay is described as follows: COIN-CaR-nMS with purified oligosaccharides listed beside the library glycans, 200 mM ammonium acetate, pH 6.9. Further details: gene SIGLEC7; residues 1-345, human IgG1 Fc fusion and C-terminal His6, from CHO cells, MW 150 kDa. The settings on record: SD; read-out: Kd, purified oligosaccharides in Tables S12, S13, S18, S19. Type of assay: binding.
Sig7-Fc, sequence (Q9Y286 1-345): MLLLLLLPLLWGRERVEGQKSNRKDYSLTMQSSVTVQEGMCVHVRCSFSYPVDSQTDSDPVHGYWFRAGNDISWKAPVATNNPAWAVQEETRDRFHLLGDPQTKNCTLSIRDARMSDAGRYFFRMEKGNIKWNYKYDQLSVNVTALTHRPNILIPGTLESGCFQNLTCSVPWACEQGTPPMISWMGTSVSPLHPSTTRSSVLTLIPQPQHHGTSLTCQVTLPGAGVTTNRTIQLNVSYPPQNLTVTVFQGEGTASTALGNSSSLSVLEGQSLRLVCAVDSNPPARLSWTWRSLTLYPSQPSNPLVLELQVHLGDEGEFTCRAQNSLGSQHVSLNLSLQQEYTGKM

In assay [17] the target is T4, MAA. The assay is described as above. Type of assay: binding. The settings on record: SD; read-out: Kd, purified oligosaccharides in Tables S12, S13, S18, S19.
In assay [18] the target is Siglec-7. To be noted: ITC; cited from earlier work.
Assay [19] addresses RCA-I (Ricinus communis agglutinin) (Ricinus communis, UniProt P06750). It counts as binding.
The target of assay [20] is T1, GAL-3C. The assay is described as follows: COIN-nMS affinity measurement. Type of assay: binding. Further details: human Galectin-3 (GAL-3C, residues 107–250, molecular weight (MW) 16 327 Da); key: NB: No binding detected. To be noted: glycans present as a mixture (G2, G5-G13); average of eight measurements; pH 6.9.
Assay [21] concerns the target T1, GAL-3C. Put plainly: direct nMS (ESI-MS) affinity measurement at known concentrations. It counts as binding. Set-up: human Galectin-3 (GAL-3C, residues 107–250, molecular weight (MW) 16 327 Da); key: NB: No binding detected. To be noted: glycans present as a mixture (G2, G5-G13); pH 6.9.
The target of assay [22] is T5, GAL-7 homodimer (Homo sapiens, UniProt P47929).
T5 construct: made in house
T5 sequence (P47929 whole entry): as the sequence (P47929 whole entry) above
The assay is described as follows: direct nMS affinity measurement. It counts as binding. Further details: key: NB: No binding detected. The settings on record: glycans present as a mixture (G2, G5-G13); pH 6.9.

Assay [23] concerns the target T5, GAL-7 homodimer. The assay is described as follows: COIN-nMS affinity measurement. Further details: key: NB: No binding detected. Type of assay: binding. To be noted: glycans present as a mixture (G2, G5-G13); average of eight measurements; pH 6.9.

In general, Kd refers to the free concentration of one partner at which half of the binding sites on the other are occupied at equilibrium, for simple one-to-one binding. In the case of `CC(=O)N[C@H]1C(O)O[C@H](CO)[C@@H](O[C@@H]2O[C@H](CO)[C@H](O)[C@H](O[C@H]3O[C@H](CO)[C@H](O)[C@H](O)[C@H]3O)[C@H]2O[C@@H]2O[C@@H](C)[C@@H](O)[C@@H](O)[C@@H]2O)[C@@H]1O` (stereo partly drawn) [G1, α-D-Gal-(1→3)-[α-L-Fuc(1→2)]-β-D-Gal(1→4)-D-GlcNAc], the Kd was 4.5 µM in assay [1]; 3.8 µM in assay [2]; 4.2 µM in assay [3]; 3.2 µM and 3.7 µM and 5.8 µM in [4].
For the compound `C[C@@H]1O[C@@H](O[C@H]2[C@H](O[C@H]3[C@H](O)[C@@H](O)C(O)O[C@@H]3CO)O[C@H](CO)[C@H](O)[C@@H]2O)[C@@H](O)[C@H](O)[C@@H]1O` (stereo partly drawn) [G2, α-L-Fuc-(1→2)-β-D-Gal-(1→4)-D-Glc (2'-fucosyllactose)], the Kd was 2100 µM in [5]; 241 µM in assay [6]; 47.6 µM in [1]; 166 µM in [7]; 23.2 µM in assay [2]; 237 µM in [8]. The Kd was 26.6 µM in assay [3]; 156 µM in assay [9]; 27 µM and 24.8 µM and 28 µM in assay [4]; 660 µM in assay [10].
On to `CC(=O)N[C@H]1[C@H](O[C@H]2[C@@H](O)[C@@H](CO)O[C@@H](O[C@H]3[C@H](O[C@@H]4O[C@@H](C)[C@@H](O)[C@@H](O)[C@@H]4O)[C@@H](O)C(O)O[C@@H]3CO)[C@@H]2O)O[C@H](CO)[C@@H](O[C@@H]2O[C@H](CO)[C@H](O)[C@H](O)[C@H]2O)[C@@H]1O[C@@H]1O[C@@H](C)[C@@H](O)[C@@H](O)[C@@H]1O` (stereo partly drawn) [G3, Gal-(1→4)-[α-L-Fuc(1→3)]-β-D-GlcNAc-(1→3)-β-D-Gal(1→4)[α-L-Fuc(1→3)]-D-Glc], for which the Kd was 521 µM in assay [11]; 524 µM and 507 µM and 537 µM in assay [12]; 518 µM in [13].
`CC(=O)N[C@H]1[C@H]([C@H](O)[C@H](O)CO)O[C@@](O[C@H]2[C@@H](O)[C@@H](CO)O[C@@H](O[C@H]3[C@H](O)[C@@H](O)C(O)O[C@@H]3CO)[C@@H]2O)(C(=O)O)C[C@@H]1O` (stereo partly drawn) [G22, 3SL, 3'-sialyllactose, α-D-Neu5Ac-(2→3)-β-D-Gal-(1→4)-D-Glc]: the Kd in [14] came out at 3.6 µM; in [15], 3.5 µM; in assay [16] it was 277 µM.
`CC(=O)N[C@H]1[C@H]([C@H](O)[C@H](O)CO)O[C@@](O[C@H]2[C@@H](O)[C@@H](CO)O[C@@H](O[C@H]3[C@H](O)[C@@H](NC(C)=O)C(O)O[C@@H]3CO)[C@@H]2O)(C(=O)O)C[C@@H]1O` (stereo partly drawn) [G25, 3SLN, α-D-Neu5Ac-(2→3)-β-D-Gal-(1→4)-D-GlcNAc]: the Kd in assay [17] came out at 2.14 µM; in [16] it was 267 µM.
For the compound `CC(=O)N[C@H]1[C@H]([C@H](O)[C@H](O)CO)O[C@@](O[C@H](CO)[C@@H](O)[C@@H]2O[C@@](O[C@H]3[C@@H](O)[C@@H](CO)O[C@@H](O[C@H]4[C@H](O)[C@@H](O)C(O)O[C@@H]4CO)[C@@H]3O)(C(=O)O)C[C@H](O)[C@H]2NC(C)=O)(C(=O)O)C[C@@H]1O` (stereo partly drawn) [GD3, α-D-Neu5Ac-(2→8)-α-D-Neu5Ac-(2→3)-β-D-Gal-(1→4)-D-Glc], in assay [18], the Kd is 98 µM.
Turning to `CC(=O)N[C@H]1[C@H](O[C@H]2[C@H](O)[C@@H](NC(C)=O)C(O)O[C@@H]2CO[C@@H]2O[C@@H](C)[C@@H](O)[C@@H](O)[C@@H]2O)O[C@H](CO)[C@@H](O[C@@H]2O[C@H](CO[C@H]3O[C@H](CO)[C@@H](O)[C@H](O)[C@@H]3O[C@@H]3O[C@H](CO)[C@@H](O[C@@H]4O[C@H](CO)[C@H](O)[C@H](O)[C@H]4O)[C@H](O)[C@H]3NC(C)=O)[C@@H](O)[C@H](O[C@H]3O[C@H](CO)[C@@H](O)[C@H](O)[C@@H]3O[C@@H]3O[C@H](CO)[C@@H](O[C@@H]4O[C@H](CO)[C@H](O)[C@H](O)[C@H]4O)[C@H](O)[C@H]3NC(C)=O)[C@@H]2O)[C@@H]1O` (some centres unmarked) [HexNAc4Hex5Fuc1], in assay [19] (pH 6.9; read-out: Kd (Native)), the Kd worked out at 1.4 ± 0.4 µM.
With `CC(=O)N[C@H]1[C@H](O[C@H]2[C@H](O)[C@@H](NC(C)=O)C(O)O[C@@H]2CO)O[C@H](CO)[C@@H](O[C@@H]2O[C@H](CO[C@H]3O[C@H](CO)[C@@H](O)[C@H](O)[C@@H]3O[C@@H]3O[C@H](CO)[C@@H](O[C@@H]4O[C@H](CO)[C@H](O)[C@H](O)[C@H]4O)[C@H](O)[C@H]3NC(C)=O)[C@@H](O)[C@H](O[C@H]3O[C@H](CO)[C@@H](O)[C@H](O)[C@@H]3O[C@@H]3O[C@H](CO)[C@@H](O[C@@H]4O[C@H](CO)[C@H](O)[C@H](O)[C@H]4O)[C@H](O)[C@H]3NC(C)=O)[C@@H]2O)[C@@H]1O` (some centres unmarked) [HexNAc4Hex5], the Kd in assay [19] (read-out: Kd (Native); pH 6.9) is 1.22 ± 0.03 µM.
With “β-D-Gal(1→3)-[α-L-Fuc(1→4)]-β-D-GlcNAc(1→3)-β-D-Gal(1→4)-[α-L-Fuc(1→3)]-β-D-Glc [Glycan G11]”, the “Kd (COIN-nMS)” value in assay [20] was “NB and do not bind”; in [23] it was “NB and do not bind”. In addition, the “Kd (nMS)” value in assay [21] and in [22] was “NB” in each case.
